According to US9834521B2, “Choline kinase inhibitors” (ARIAD Pharmaceuticals, Inc., priority 2013, dated 2017):
pIC50, pKd: −log10 of the molar value. Where two headings read alike, the source gives them in different places.

Columns and labels:
[1] = biological target: T1, truncated form of human Choline kinase α1 that includes residues 75-457 (Homo sapiens, UniProt P35790); assay: Kinase Assay, coupled (ATP regeneration) LDH/PK assay, NADH absorbance; format: biochemical; conditions: read-out: IC50
T1 construct: made in house
Experimental: Absorbance of NADH (340 nm) was measured over 30 min using a SpectraMax M5 (Molecular Devices). Initial reaction velocity (ΔA340/Δt) was calculated and plotted as a function of inhibitor concentration in a 2-fold dilution series. IC50 values were obtained by fitting the relative velocities to a dose-response model.

ChoKα protein = biological target: T2, ChoKα protein (Homo sapiens, UniProt P35790); assay: Binding affinity by surface plasmon resonance (SensiQ Pioneer, FastStep); conditions: SPR, 1:1 binding model, upper concentration 500 nM; read-out: Kd
T2 construct: made in house
Experimental: KD may be measured using surface plasmon resonance (BIAcore®) technology, see, e.g., Panayotou et al, Mol. Cell. […] ChoKα protein was immobilized by standard amine coupling methods on a COOH5 sensor chip installed in a SensiQ Pioneer system. Sensograms were measured using the FastStep™ screen method with an upper concentration of 500 nM. Kinetics and affinity were obtained from fits using a 1:1 binding model.

[2] = Examples not designated with an asterisk, footnote prints version 1 of the Kinase Assay
[3] = Examples designated with an asterisk (*): version 1 of the Kinase Assay, 200 nM enzyme

T2 sequence (P35790 75-457): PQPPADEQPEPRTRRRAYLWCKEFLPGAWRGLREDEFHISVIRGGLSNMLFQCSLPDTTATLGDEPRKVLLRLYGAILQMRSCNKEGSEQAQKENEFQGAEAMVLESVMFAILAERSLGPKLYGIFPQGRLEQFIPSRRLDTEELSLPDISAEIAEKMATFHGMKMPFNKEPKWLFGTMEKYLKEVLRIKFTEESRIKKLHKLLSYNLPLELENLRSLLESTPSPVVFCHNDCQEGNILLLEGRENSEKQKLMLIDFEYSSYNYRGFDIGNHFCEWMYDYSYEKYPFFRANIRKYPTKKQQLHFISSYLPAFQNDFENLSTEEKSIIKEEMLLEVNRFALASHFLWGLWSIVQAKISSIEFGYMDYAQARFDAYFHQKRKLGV
T1 sequence (P35790 75-457): as above

Row | Structure (SMILES) | pIC50 [1, 2] | pKd (ChoKα protein) | pIC50 [1, 3]
1 | CN1CCCN(Cc2ccc(-c3ccc(S(=O)(=O)NCCO)cc3)c(C#N)c2)CC1 [Example 85, 2′-cyano-N-(2-hydroxyethyl)-4′-((4-methyl-1,4-diazepan-1-yl)methyl)-[1,1′-biphenyl]-4-sulfonamide] | > 7.00 | > 7.00 | –
2 | CN1CCCN(Cc2ccc(-n3cncn3)cc2)CC1 [Example 139, 1-(4-(1H-1,2,4-triazol-1-yl)benzyl)-4-methyl-1,4-diazepane] | – | > 4.22 | > 6.30
3 | CN1CCCN(Cc2ccc(-c3ccc(CN4CCN(C)CC4)cc3)c(C#N)c2)CC1 [Example 11, 4-((4-methyl-1,4-diazepan-1-yl)methyl)-4′-((4-methylpiperazin-1-yl)methyl)-[1,1′-biphenyl]-2-carbonitrile] | > 6.70 | > 6.70 | –
4 | CN(C)CCCNC(=O)c1ccc(-c2ccc(CN3CCCN(C)CC3)cc2C#N)cc1 [Example 30, 2′-cyano-N-(3-(dimethylamino)propyl)-4′-((4-methyl-1,4-diazepan-1-yl)methyl)-[1,1′-biphenyl]-4-carboxamide] | > 7.00 | > 7.30 | –
5 | CNC(=O)Nc1ccc(-c2ccc(CN3CCCN(C)CC3)cc2C#N)cc1 [Example 114, 1-(2′-cyano-4′-((4-methyl-1,4-diazepan-1-yl)methyl)-[1,1′-biphenyl]-4-yl)-3-methylurea] | > 7.00 | > 7.00 | –
6 | CN1CCCN(Cc2ccc(CN3CCC(N4CCCC4)CC3)cc2)CC1 [Example 148, 1-methyl-4-(4-((4-(pyrrolidin-1-yl)piperidin-1-yl)methyl)benzyl)-1,4-diazepane] | – | > 4.22 | > 6.70
7 | CN1CCCN(Cc2ccc(-c3ccc(S(=O)(=O)N4CCN(C)CC4)cc3)c(C#N)c2)CC1 [Example 84, 4-((4-methyl-1,4-diazepan-1-yl)methyl)-4′-((4-methylpiperazin-1-yl)sulfonyl)-[1,1′-biphenyl]-2-carbonitrile] | > 7.00 | > 7.00 | –
8 | CN1CCCN(Cc2ccc(CNc3cccc(C(N)=O)c3)cc2)CC1 [Example 152, 3-((4-((4-methyl-1,4-diazepan-1-yl)methyl)benzyl)amino)benzamide] | – | > 4.22 | > 6.70
9 | CN1CCCN(Cc2ccc(-n3cccn3)cc2F)CC1 [Example 142, 1-(2-fluoro-4-(1H-pyrazol-1-yl)benzyl)-4-methyl-1,4-diazepane] | – | > 4.22 | > 6.70
10 | CNC(=O)c1ccc(-c2ccc(CN3CCCN(C)CC3)cc2C#N)cc1 [Example 29, 2′-cyano-N-methyl-4′-((4-methyl-1,4-diazepan-yl)methyl)-[1,1′-biphenyl]-4-carboxamide] | > 6.70 | > 6.70 | –
11 | CN1CCCN(Cc2ccc(-c3ccc(CN4CCC(O)C4)cc3)c(C#N)c2)CC1 (centres unmarked) [Example 2, 4′-((3-hydroxypyrrolidin-1-yl)methyl)-4-((4-methyl-1,4-diazepan-1-yl)methyl)-[1,1′-biphenyl]-2-carbonitrile] | > 7.00 | > 7.30 | –
12 | CN1CCCN(Cc2ccc(-c3ccc(C(=O)N4CCC(CO)C4)cc3)c(C#N)c2)CC1 (centres unmarked) [Example 22, 4′-(3-(hydroxymethyl)pyrrolidine-1-carbonyl)-4-((4-methyl-1,4-diazepan-1-yl)methyl)-[1,1′-biphenyl]-2-carbonitrile] | > 6.70 | > 6.70 | –
13 | CN1CCCN(Cc2ccc(CNc3ccc(N4CCN(C)CC4)cc3)cc2)CC1 [Example 153, N-(4-((4-methyl-1,4-diazepan-1-yl)methyl)benzyl)-4-(4-methylpiperazin-1-yl)aniline] | – | > 4.22 | > 6.70
14 | CN1CCCN(Cc2ccc(-c3ccc(C(=O)N4CCCN(C)CC4)cc3-c3ccncc3)c(C#N)c2)CC1 [Example 72, 4-((4-methyl-1,4-diazepan-1-yl)methyl)-4′-(4-methyl-1,4-diazepane-1-carbonyl)-2′-(pyridin-4-yl)-[1,1′-biphenyl]-2-carbonitrile] | > 6.70 | > 6.70 | –
15 | CN1CCCN(Cc2ccc(-c3ccc(CN4CCC(CO)C4)cc3)c(C#N)c2)CC1 (centres unmarked) [Example 5, 4′-((3-(hydroxymethyl)pyrrolidin-1-yl)methyl)-4-((4-methyl-1,4-diazepan-1-yl)methyl)-[1,1′-biphenyl]-2-carbonitrile] | > 6.70 | > 6.70 | –
16 | CN1CCCN(Cc2ccc(-c3ccc(C(=O)N4CCCN(C)CC4)cc3-c3ccc(CN4CCOCC4)cc3)c(C#N)c2)CC1 [Example 80, 4-((4-methyl-1,4-diazepan-1-yl)methyl)-4′-(4-methyl-1,4-diazepane-1-carbonyl)-4″-(morpholinomethyl)-[1,1′:2′,1″-terphenyl]-2-carbonitrile] | > 7.00 | > 7.30 | –

Row | Structure (SMILES) | pIC50 [1, 2] | pKd (ChoKα protein) | pIC50 [1, 3]
17 | CN1CCCN(Cc2ccc(-c3ccc(C(=O)N4CCCN(C)CC4)cc3C#N)c(C#N)c2)CC1 [Example 63, 4-((4-methyl-1,4-diazepan-1-yl)methyl)-4′-(4-methyl-1,4-diazepane-1-carbonyl)-[1,1′-biphenyl]-2,2′-dicarbonitrile] | > 6.70 | > 6.70 | –
18 | CN1CCCN(Cc2ccc(-c3ccc(CC#N)cc3)c(C#N)c2)CC1 [Example 93, 4′-(cyanomethyl)-4-((4-methyl-1,4-diazepan-1-yl)methyl)-[1,1′-biphenyl]-2-carbonitrile] | > 6.70 | > 4.22 | –
19 | CN1CCCN(Cc2ccc(-c3ccc(CN4CCOCC4)cc3)c(C#N)c2)CC1 [Example 9, 4-((4-methyl-1,4-diazepan-1-yl)methyl)-4′-(morpholinomethyl)-[1,1′-biphenyl]-2-carbonitrile] | > 6.70 | > 7.00 | –
20 | COc1ccc(-c2cc(C(=O)N3CCCN(C)CC3)ccc2-c2ccc(CN3CCCN(C)CC3)cc2C#N)cc1OC [Example 81, 3″,4″-dimethoxy-4-((4-methyl-1,4-diazepan-1-yl)methyl)-4′-(4-methyl-1,4-diazepane-1-carbonyl)-[1,1′1:2′,1″-terphenyl]-2-carbonitrile] | > 7.00 | > 7.30 | –
21 | CN1CCCN(Cc2ccc(-c3ccc(CN4CCNC(=O)C4)cc3)c(C#N)c2)CC1 [Example 7, 4-((4-methyl-1,4-diazepan-1-yl)methyl)-4′-((3-oxopiperazin-1-yl)methyl)-[1,1′-biphenyl]-2-carbonitrile] | > 6.70 | > 4.22 | –
22 | CN1CCCN(Cc2ccc(-c3ccc(NC(N)=O)cc3)c(C#N)c2)CC1 [Example 90, 1-(2′-cyano-4′-((4-methyl-1,4-diazepan-1-yl)methyl)-[1,1′-biphenyl]-4-yl)urea] | > 6.70 | > 6.70 | –
23 | CN1CCCN(Cc2ccc(-c3ccc(C(=O)N4CCCN(C)CC4)cc3-c3cccc([N+](=O)[O-])c3)c(C#N)c2)CC1 [Example 77, 4-((4-methyl-1,4-diazepan-1-yl)methyl)-4′-(4-methyl-1,4-diazepane-1-carbonyl)-3″-nitro-[1,1′:2′,1″-terphenyl]-2-carbonitrile] | > 7.00 | > 7.30 | –
24 | CN1CCCN(Cc2ccc(-c3ccc(C(=O)N4CCCN(C)CC4)cc3-c3cc(F)cc(F)c3)c(C#N)c2)CC1 [Example 78, 3″,5″-difluoro-4-((4-methyl-1,4-diazepan-1-yl)methyl)-4′-(4-methyl-1,4-diazepane-1-carbonyl)-[1,1′:2′,1″-terphenyl]-2-carbonitrile] | > 7.00 | > 7.30 | –
25 | CCN(CC)C1CCN(Cc2ccc(-c3ccc(CN4CCCN(C)CC4)cc3C#N)cc2)CC1 [Example 15, 4′-((4-(diethylamino)piperidin-1-yl)methyl)-4-((4-methyl-1,4-diazepan-1-yl)methyl)-[1,1′-biphenyl]-2-carbonitrile] | > 7.00 | > 7.30 | –
26 | CN1CCCN(Cc2ccc(-c3ccc(CN4CCCC(O)C4)cc3)c(C#N)c2)CC1 (centres unmarked) [Example 1, 4′-((3-hydroxypiperidin-1-yl)methyl)-4-((4-methyl-1,4-diazepan-1-yl)methyl)-[1,1′-biphenyl]-2-carbonitrile] | > 7.00 | > 7.00 | –
27 | CN1CCCN(Cc2ccc(-c3ccc(CN4CCCN(C)CC4)cc3[N+](=O)[O-])cc2)CC1 [Example 57, 4,4′-((2-nitro-[1,1′-biphenyl]-4,4′-diyl)bis(methylene))bis(1-methyl-1,4-diazepane)] | > 7.00 | > 7.00 | –
28 | CNS(=O)(=O)c1ccc(-c2ccc(CN3CCCN(C)CC3)cc2C#N)c(C)c1 [Example 97, 2′-cyano-N,2-dimethyl-4′-((4-methyl-1,4-diazepan-1-yl)methyl)-[1,1′-biphenyl]-4-sulfonamide] | > 6.70 | > 6.70 | –
29 | CN1CCCN(Cc2ccc(-c3ccc(C(=O)N4CCCN(C)CC4)cc3-c3ccc(O)cc3)c(C#N)c2)CC1 [Example 69, 4″-hydroxy-4-((4-methyl-1,4-diazepan-1-yl)methyl)-4′-(4-methyl-1,4-diazepane-1-carbonyl)-[1,1′:2′,1″-terphenyl]-2-carbonitrile] | > 7.00 | > 7.30 | –
30 | CN1CCCN(Cc2ccc(-c3ccc(C(=O)N4CCCN(C)CC4)cc3N)c(C#N)c2)CC1 [Example 64, 2′-amino-4-((4-methyl-1,4-diazepan-1-yl)methyl)-4′-(4-methyl-1,4-diazepane-1-carbonyl)-[1,1-biphenyl]-2-carbonitrile] | > 6.70 | > 4.22 | –
31 | CN1CCCN(Cc2ccc(-c3ccc(CN4CCN(CCO)CC4)cc3)c(C#N)c2)CC1 [Example 6, 4′-((4-(2-hydroxyethyl)piperazin-1-yl)methyl)-4-((4-methyl-1,4-diazepan-1-yl)methyl)-[1,1′-biphenyl]-2-carbonitrile] | > 6.70 | > 7.00 | –
